Laboratory results from PubChem BioAssay (NCI).
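These data come from cells grown in 96-well plates and exposed to compound for 48 hours at five concentrations. Definition used: TGI = concentration required for complete inhibition of growth.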

Key:
Assay in all cases: NCI anticancer screen, dose series, 48 h
SR leukemia = tested on: SR leukemia
RXF-631 renal = tested on: RXF-631 renal
SNB-75 CNS = tested on: SNB-75 CNS
KM12 colon = tested on: KM12 colon
CCRF-CEM leukemia = tested on: CCRF-CEM leukemia
XF 498 CNS = tested on: XF 498 CNS
ACHN renal = tested on: ACHN renal
786-0 renal = tested on: 786-0 renal
SK-MEL-28 melanoma = tested on: SK-MEL-28 melanoma
IGROV1 ovarian = tested on: IGROV1 ovarian
OVCAR-5 ovarian = tested on: OVCAR-5 ovarian
EKVX NSCLC = tested on: EKVX NSCLC
U251 CNS = tested on: U251 CNS
MALME-3M melanoma = tested on: MALME-3M melanoma
HL-60(TB) leukemia = tested on: HL-60(TB) leukemia
SF-268 CNS = tested on: SF-268 CNS
HCT-15 colon = tested on: HCT-15 colon
SF-295 CNS = tested on: SF-295 CNS
NCI-H23 lung = tested on: NCI-H23 lung
SN12C renal = tested on: SN12C renal
HT29 colon = tested on: HT29 colon
COLO 205 colon = tested on: COLO 205 colon
K-562 leukemia = tested on: K-562 leukemia
M14 melanoma = tested on: M14 melanoma
SK-MEL-2 melanoma = tested on: SK-MEL-2 melanoma
HOP-18 NSCLC = tested on: HOP-18 NSCLC
HOP-62 NSCLC = tested on: HOP-62 NSCLC
A549 NSCLC = tested on: A549 NSCLC
UACC-257 melanoma = tested on: UACC-257 melanoma
DLD-1 colon = tested on: DLD-1 colon
RXF 393 renal = tested on: RXF 393 renal
DMS 273 small cell lung = tested on: DMS 273 small cell lung
RPMI-8226 leukemia = tested on: RPMI-8226 leukemia
A498 renal = tested on: A498 renal
NCI-H460 lung = tested on: NCI-H460 lung
OVCAR-8 ovarian = tested on: OVCAR-8 ovarian
MOLT-4 leukemia = tested on: MOLT-4 leukemia
HOP-92 NSCLC = tested on: HOP-92 NSCLC
SK-OV-3 ovarian = tested on: SK-OV-3 ovarian
TK-10 renal = tested on: TK-10 renal
UO-31 renal = tested on: UO-31 renal
SK-MEL-5 melanoma = tested on: SK-MEL-5 melanoma
M19-MEL melanoma = tested on: M19-MEL melanoma
UACC-62 melanoma = tested on: UACC-62 melanoma
SW-620 colon = tested on: SW-620 colon
OVCAR-3 ovarian = tested on: OVCAR-3 ovarian
LOX IMVI melanoma = tested on: LOX IMVI melanoma
LXFL 529 NSCLC = tested on: LXFL 529 NSCLC
SF-539 CNS = tested on: SF-539 CNS
OVCAR-4 ovarian = tested on: OVCAR-4 ovarian
SNB-19 CNS = tested on: SNB-19 CNS
HCT-116 colon = tested on: HCT-116 colon
NCI-H522 lung = tested on: NCI-H522 lung
CAKI-1 renal = tested on: CAKI-1 renal
SNB-78 CNS = tested on: SNB-78 CNS
NCI-H226 lung = tested on: NCI-H226 lung
HCC-2998 colon = tested on: HCC-2998 colon
KM20L2 colon = tested on: KM20L2 colon
DMS 114 small cell lung = tested on: DMS 114 small cell lung

Measured: TGI

O=C1NC2(CCCC2)C(=O)C12CCCC2
not listed: NCI-H226 lung | HCC-2998 colon | KM20L2 colon | DMS 114 small cell lung
> 100 µM: all other assays above

C#CCNC(=O)NC(CCCNC(=O)OCc1ccccc1)C(=O)OCc1ccccc1 (configuration not stated)
95.2 µM: RXF 393 renal
93.3 µM: UACC-257 melanoma
87.5 µM: CAKI-1 renal
50.6 µM: M14 melanoma
62.7 µM: NCI-H522 lung
26.9 µM: XF 498 CNS
59.3 µM: HL-60(TB) leukemia
not listed: HOP-18 NSCLC
> 100 µM: all other assays above

COC(=O)C(c1[nH]nc2ccccc12)C(C(=O)OC)c1[nH]nc2ccccc12 (configuration not stated)
53.4 µM: OVCAR-4 ovarian
50.4 µM: RPMI-8226 leukemia
82.5 µM: MOLT-4 leukemia
33.7 µM: SW-620 colon
44.9 µM: SF-539 CNS
66.3 µM: RXF 393 renal
83.8 µM: DMS 114 small cell lung
50.5 µM: HL-60(TB) leukemia
77.6 µM: OVCAR-8 ovarian
not listed: COLO 205 colon | SK-MEL-2 melanoma | DMS 273 small cell lung | HOP-92 NSCLC | SK-MEL-5 melanoma | NCI-H522 lung | CAKI-1 renal
> 100 µM: all other assays above

N#CCCN(c1ccc(C=Nc2cccc([N+](=O)[O-])c2)cc1)S(=O)(=O)c1ccccc1
not listed: ACHN renal | OVCAR-5 ovarian | U251 CNS | HCT-15 colon | HOP-18 NSCLC | RXF 393 renal | A498 renal | NCI-H460 lung | SK-MEL-5 melanoma | M19-MEL melanoma | LOX IMVI melanoma | KM20L2 colon
> 100 µM: all other assays above
